In patent US20120122727A1, “IN VITRO METHOD FOR PREDICTING WHETHER A COMPOUND IS GENOTOXIC IN VIVO” (priority 2009, published 2012):
Like-named read-outs stand apart in the source and are kept apart here.

Assays:
[1] = tested on: primary mouse hepatocytes; assay: Class prediction true GTX vs false GTX by PAM from hepatocyte gene expression
Experimental: PAM uses gene expression data to calculate the shrunken centroid for each class and identifies the specific genes that determine the centroid most. Based on the nearest shrunken centroid, PAM is also capable of predicting to which class an unknown sample belongs (27). Class prediction was performed after 24 h and 48 h of exposure.
For this analysis, the gene list with differentially expressed probe sets was used. For each exposure period, 3 sets of genes (classifiers) were generated by PAM, using all ten treatments, based on the smallest estimated misclassification error rate (generated by 10-fold cross-validation) and a >80% predicted test probability. This was done by using 2 experiments as training set and the third experiment for validation. This was done for all 3 possible combinations, each time leaving out another experiment. For each time point, the classifiers that were in common between the three training sets, were set as the final classifier set for that time point
For the purpose of validating the class discrimination models with the final classifier sets, gene expression data were generated for two additional true GTX compounds, phenacetin and DMBA, and for three False GTX compounds, cur, ethylacrylate and resorcinol and the vehicle control for exposure periods of 24 and 48 h.

[2] = cited from earlier work
[3] = 24 h exposure, independent triplicate treatments
[4] = 48 h exposure, independent triplicate treatments
[5] = PAM class prediction, 24 h, Exp 1
[6] = PAM class prediction, 24 h, Exp 2
[7] = PAM class prediction, 24 h, Exp 3
[8] = PAM class prediction, 48 h, Exp 1
[9] = PAM class prediction, 48 h, Exp 2
[10] = PAM class prediction, 48 h, Exp 3
[11] = known class of the validation compound (GTX = true GTX, FP-GTX = false GTX)

Row | Structure (SMILES) | class prediction (true GTX / false GTX) [1, 3] | class prediction (true GTX / false GTX) [1, 4] | Prediction 24 h Exp 1 [1, 5] | Prediction 24 h Exp 2 [1, 6] | Prediction 24 h Exp 3 [1, 7] | Prediction 48 h Exp 1 [1, 8] | Prediction 48 h Exp 2 [1, 9] | Prediction 48 h Exp 3 [1, 10] | predicted test probability ([1]; both time points (24 and 48 h)) [%] | Genotoxic class [2, 11] | Prediction 24 h Exp 1 [1] | Prediction 24 h Exp 2 [1] | Prediction 24 h Exp 3 [1] | Prediction 48 h Exp 1 [1] | Prediction 48 h Exp 2 [1] | Prediction 48 h Exp 3 [1] | class prediction (true GTX / false GTX) [1] | predicted test probability [1] [%] | Genotoxic class ([2]; in vivo) | predicted test probability ([1]; mouse) [%]
1 | Cc1c2ccccc2c(C)c2c1ccc1ccccc12 [DMBA] | classified correctly | classified correctly | GTX | GTX | GTX | GTX | GTX | GTX | 100 | GTX | – | – | – | – | – | – | – | – | – | –
2 | CCOc1ccc(NC(C)=O)cc1 [Phen] | – | – | GTX | GTX | GTX | FP-GTX | FP-GTX | FP-GTX | – | GTX | – | – | – | – | – | – | – | – | – | –
3 | COc1cc(/C=C/C(=O)CC(=O)/C=C/c2ccc(O)c(OC)c2)ccc1O [cur] | – | – | – | – | – | – | – | – | – | – | FP-GTX | FP-GTX | FP-GTX | FP-GTX | FP-GTX | FP-GTX | classified correctly | 100 | FP-GTX | –
4 | C=CC(=O)OCC [ethylacrylate] | classified correctly | classified correctly | FP-GTX | FP-GTX | FP-GTX | FP-GTX | FP-GTX | FP-GTX | 100 | – | – | – | – | – | – | – | – | – | FP-GTX | –
5 | Oc1cccc(O)c1 [resorcinol] | – | – | – | – | – | – | – | – | – | FP-GTX | FP-GTX | FP-GTX | FP-GTX | FP-GTX | FP-GTX | FP-GTX | classified correctly | – | – | 100
